# Data from patent publication US9334278B2, “Pyrrolo[2,3-B]pyrazines as SYK inhibitors” (Hoffmann-La Roche Inc., priority 2012, dated 2016).
# Key:
# [1] = test system: B cell CD69 up-regulation in human whole blood; assay: B Cell CD69 Up-Regulation Assay in Human Whole Blood; type: cell-based; conditions: anti-human IgM 50 μg/mL for 20 h, CD69hi CD20+ B cells
# Method: B Cell CD69 Up-Regulation Assay in Human Whole Blood
# Human Blood was collected from healthy volunteers into Vacutainers (BD Biosciences, San Jose, Calif.) containing sodium heparin. Test compound was suspended in DMSO and nine half-log serial dilutions were made. The concentration of […] in the assay was 0.5%. 100 μL whole blood was pre-incubated with compound for 30 min and then stimulated with goat F(ab′)2 anti-human IgM (50 μg/mL, Southern Biotech) for 20 h. At the end of the 20 hour incubation, samples were incubated with fluorochrome-conjugated antibodies, PE mouse anti-human CD20 and APC Mouse anti-human CD69 (BD Biosciences), for 30 minutes. Samples were then lysed with Lyse solution (BD) and washed with PBS containing 2% fetal bovine serum (FBS). Fluorescent signals were acquired on flow cytometer LSR II (BD) and data were analyzed by Flow Jo. The percentage of activated (CD69hi) B-cell lymphocytes (CD20+) were determined using un-stimulated (negative control) and stimulated (positive control) wells as reference guidelines. The percentage inhibition was calculated and an IC50 curve was constructed using GraphPad Prism software with sigmoidal curve fitting.
# [2] = test system: Human B cell lymphoma cell line Ramos; assay: Ramos Calcium Influx FLIPR Assay; type: cell-based; conditions: Ramos cells, anti-human IgM 10 μg/mL stimulation, read-out: RAMOS_IC50
# Method: Ramos Calcium Influx FLIPR Assay
# Human B cell lymphoma cell line Ramos was cultivated in RPMI-1640 with 10% Fetal Bovine Serum (Invitrogen). Cells were seeded into assay plate and loaded with calcium dye by adding 30 μl of dye loading buffer according to manufacturer's instruction (Beckton Dickinson Calcium Kit, Cat#80500). The cells were then treated with serial diluted compounds for 30 min before stimulation. Baseline fluorescence was recorded for about 20 seconds followed by stimulation with mouse anti-human IgM (10 μg/mL, clone M2E6, Antibody Solutions Inc.) for Ramos cells, and record of the maximal fluorescent counts in each well. Maximal counts divided by baseline counts, defined as fold change from baseline for each well, was used for IC50 calculation.
# [3] = molecular target: recombinant human SYK360-635 (Spleen Tyrosine Kinase) (Homo sapiens (Human), UniProt P43405); assay: SYK kinase assay (33P filtration, IC50 of SYK inhibition); conditions: read-out: ENZYME_FILTRATION_IC50; SYK 0.5 nM, ATP 20 μM, 33P filtration
# Method: Determination of IC50 of Spleen Tyrosine Kinase (SYK) inhibition:
# SYK kinase assay is a standard kinase assay adapted to a 96 well plate format. This assay is performed in 96-well format for IC50 determination with 8 samples which represented 10 half log dilutions and a 40 μL reaction volume. The assay measures the incorporation of radiolabeled ^33P γATP into an N-terminally biotinylated peptide substrate, derived from naturally occurring phosphoacceptor consensus sequence (Biotin-11aa DY*E). Phosphorylated products were detected upon termination of reactions with EDTA and the addition of Streptavidin coated beads.
# BSA: Bovine Serum Albumin Fraction V, fatty acid free (Roche Diagnostics GmbH, Cat. No. 9100221) diluted to a final concentration of 0.1%
# Assay Dilution Buffer (ADB): 50 mM HEPES, 0.1 mM EGTA, 0.1 mM Na Vanadate, 0.1 mM (3-glycerophosphate, 10 mM MgCl2, 1 mM DTT, 0.1% BSA, pH 7.5
# Bead wash buffer: 10 g/L PBS (Phosphate buffered saline) with 2M NaCl+1% phosphoric acid.
# DMSO and the mixture was incubated for 10 min at RT.
# The kinase reaction was initiated by the addition of 10 μL 4× substrate cocktail containing the DYE peptide substrate [0 or 5 μM], ATP [20 μM] and ^33PγATP [2 μCi/r×n]. After incubation at 30° C. for 15 min, the reaction was terminated by the transfer of 25 μL of the reaction sample to a 96 well 0.65 μm Millipore MADVNOB membrane/plate containing 200 μL 5 mM EDTA and 20% Streptavidine coated beads in PBS.
# The unbound radionucleotides were washed under vacuum with 3×250 μL 2M NaCl; 2×250 μL 2M NaCl+1% phosphoric acid; 1×250 μL H2O. After the last wash membrane/plates were transferred to an adaptor plate, heat dried for 15 min at 60° C., and 50 μL scintillation cocktail was added to each well and 4 h later the amount of radioactivity was counted in a top counter.
IC50 [1] [µM],IC50 [2] [µM],IC50 [3] [µM],SMILES
0.375,0.168,0.0924,"Cc1c(Nc2cnc3[nH]cc(C(=O)NC(C)(C)C)c3n2)cnn1C [Compound I-16, N-tert-butyl-2-(1,5-dimethyl-1H-pyrazol-4-ylamino)-5H-pyrrolo[2,3-b]pyrazine-7-carboxamide]"
0.268,0.278,0.0975,"Cc1nn(C)cc1Nc1cnc2[nH]cc(C(=O)NC(C)(C)C)c2n1 [Compound I-30, N-tert-butyl-2-(1,3-dimethyl-1H-pyrazol-4-ylamino)-5H-pyrrolo[2,3-b]pyrazine-7-carboxamide]"
0.631,0.223,0.0188,"CC(N)c1cccc(Nc2cnc3[nH]cc(C(=O)NC(C)(C)C)c3n2)c1 (stereo not drawn) [Compound I-27, 2-(3-(1-aminoethyl)phenylamino)-N-tert-butyl-5H-pyrrolo[2,3-b]pyrazine-7-carboxamide]"
0.204,0.146,0.0211,"Cn1ccc(Nc2cnc3[nH]cc(C(=O)NC(C)(C)C)c3n2)n1 [Compound I-3, N-tert-butyl-2-(1-methyl-1H-pyrazol-3-ylamino)-5H-pyrrolo[2,3-b]pyrazine-7-carboxamide]"
0.627,0.122,0.0085,"Cc1ccc(Nc2cnc3[nH]cc(C(=O)NC(C)(C)C)c3n2)nc1 [Compound I-1, N-tert-butyl-2-(5-methylpyridin-2-ylamino)-5H-pyrrolo[2,3-b]pyrazine-7-carboxamide]"
0.422,0.334,0.0513,"Cc1cnc(Nc2cnc3[nH]cc(C(=O)NC(C)(C)C)c3n2)cn1 [Compound I-8, N-tert-butyl-2-(5-methylpyrazin-2-ylamino)-5H-pyrrolo[2,3-b]pyrazine-7-carboxamide]"
8.3,1.25,0.251,"Cc1cc(Nc2nc3c(C(=O)NC(C)(C)C)c[nH]c3nc2C)sn1 [Compound I-36, 3-Methyl-2-(3-methyl-isothiazol-5-ylamino)-5H-pyrrolo[2,3-b]pyrazine-7-carboxylic acid tert-butylamide]"
> 50,4.8,1.9,"CN(c1cccnc1)c1cnc2[nH]cc(C(=O)NC(C)(C)C)c2n1 [Compound I-21, N-tert-butyl-2-(methyl(pyridin-3-yl)amino)-5H-pyrrolo[2,3-b]pyrazine-7-carboxamide]"
0.183,0.101,0.0359,"CCn1cc(Nc2cnc3[nH]cc(C(=O)NC(C)(C)C)c3n2)cn1 [Compound I-14, N-tert-butyl-2-(1-ethyl-1H-pyrazol-4-ylamino)-5H-pyrrolo[2,3-b]pyrazine-7-carboxamide]"
1.34,0.0797,0.0251,"Cc1cc(Nc2cnc3[nH]cc(C(=O)NC(C)(C)C)c3n2)on1 [Compound I-22, N-tert-butyl-2-(3-methylisoxazol-5-ylamino)-5H-pyrrolo[2,3-b]pyrazine-7-carboxamide]"
0.43,0.115,0.0171,"Cc1ccc(Nc2cnc3[nH]cc(C(=O)NC(C)(C)C)c3n2)cn1 [Compound I-6, N-tert-butyl-2-(6-methylpyridin-3-ylamino)-5H-pyrrolo[2,3-b]pyrazine-7-carboxamide]"
0.535,0.245,0.0274,"Cc1ccc(Nc2cnc3[nH]cc(C(=O)NC(C)(C)CO)c3n2)nc1 [Compound I-2, N-(1-hydroxy-2-methylpropan-2-yl)-2-(5-methylpyridin-2-ylamino)-5H-pyrrolo[2,3-b]pyrazine-7-carboxamide]"
0.506,0.338,0.03,"CC(C)(C)NC(=O)c1c[nH]c2ncc(Nc3ccc(S(C)(=O)=O)cc3)nc12 [Compound I-20, N-tert-butyl-2-(4-(methylsulfonyl)phenylamino)-5H-pyrrolo[2,3-b]pyrazine-7-carboxamide]"
